Assays:
[1] = Rat Cantharidin Screen (topical anti-inflammatory activity); format: in vivo; settings: 72 hrs
Experimental: Compounds were tested for topical anti-inflammatory activity in a cantharidin rat ear screen, by a method described by A. Boris et al, [J. Invest. Dermatol. 68, 161 (1977)].
Cantharidin (450 μg) in a suitable solvent, such as methanol or tetrahydrofuran applied topically to one rat ear, causes severe inflammation giving approximately double the normal weight at 72 hrs. compared to the other, untreated ear. The test compounds were applied simultaneously with cantharidin in tetrahydrofuran.

[2] = Mouse Oxazolone Screen (topical anti-inflammatory activity); format: in vivo; settings: 24 hr after challenge; for inhibition in vivo at 100 µg/ear: 100 μg/ear; for inhibition in vivo at 200 µg/ear: 200 μg/ear
Experimental: Compounds were tested for topical anti-inflammatory activity in a mouse oxazolone screen, by a method modified from that of Dietrich and Hess [Int. Arch. Allergy, 38, 246 (1970)].
Mice were sensitised with oxazolone (2 mg in EtOH) on a shaved area of the abdomen, and then challenged with oxazolone (100 μg) with or without the test compound on the left ear 5 days later.

[3] = Quinone Quantal Writhing Test (analgesic activity); format: in vivo; settings: 50 mg/kg po
Experimental: L. C. Hendershot and J. Fersaith, J. Pharmac. exp. Therap. 1959, 125, 237-240.
Compounds 1 and 2 had analgesic activity giving 10 and 50 percent inhibition respectively at a dose of 50 mg/kg po.

[4] = Carrageenin Test (paw volume); format: in vivo, rat (OLAC Wistar); settings: 3 hours after carrageenin
Experimental: Groups of 8 OLAC Wistar male rats (140-170 g) received the Compounds orally 1 hour before 0.1 ml of 0.5% λ carrageenin injected into the right hind paw. Paw volumes were measured by mercury displacement 3 hours after carrageenin.

[5] = Croton Oil Test (topical anti-inflammatory activity); format: in vivo, rat (Charles River Wistar); settings: 1 mg/ear, 6 hours
Experimental: Compounds were tested for anti-inflammatory activity in a topical model based on that described by Fregnan G. B. and Torsello, A. L. (1975), Current Therapeutic Research 17, No. 4, 375-381. In outline the method is as follows:
Rats, Charles River Wistar Strain, female, 10/group. Weight range 200-240 g.
Irritant solution applied consists of 1% croton oil in tetrahydrofuran. 0.05 ml is placed on each ear, compound being included in the irritant solution on one ear. 6 hours later the ears are removed by cutting along the hairline and weighed.
-ve control--no irritant solution.
+ve control--irritant solution on both ears.

[6] = in mice; cited from earlier work

Cc1cc(NC2CCCCC2)c2[nH]ncc2n1 [Compound 11, 7-Cyclohexylamino-5-methyl-1H-pyrazolo[4,3-b]pyridine]
inhibition in vivo at 1 mg/ear [1]: 66%

Cc1cc(N(C)c2ccccc2)c2[nH]ncc2n1 [Compound 17, 7-(N-Methylanilino)-5-methyl-1H-pyrazolo[4,3-b]pyridine]
inhibition in vivo at 1 mg/ear [1]: 31% | inhibition in vivo at 100 µg/ear [2]: 32%

Cc1cc(Nc2ccc(C(C)(C)C)cc2)c2[nH]ncc2n1 [Compound 22, 5-Methyl-7-p-t-butylanilino-1H-pyrazolo[4,3-b]pyridine]
inhibition in vivo at 1 mg/ear [1]: 68%

Cc1cc(N2CCCCC2)c2[nH]ncc2n1 [Compound 2, 5-Methyl-7-piperidino-1H-pyrazolo(4,3-b)pyridine]
percent inhibition (analgesic activity) [3]: 50% | % Inhibition ([4]; 81 mg/kg orally): 41.7% | % Inhibition [5]: 34.8%

Cc1ccc(Sc2cc(C)nc3cn[nH]c23)cc1 [Compound 3, 5-Methyl-7-(p-tolythio)-1H-pyrazolo(4,3-b)pyridine]
inhibition in vivo at 200 µg/ear [2]: 37%

CCOc1cccc(Nc2cc(C)nc3cn[nH]c23)c1 [Compound 12, 7-(3-Ethoxyanilino)-5-methyl-1H-pyrazolo[4,3-b]pyridine]
inhibition in vivo at 1 mg/ear [1]: 41%

c1ccc(Nc2ccnc3cn[nH]c23)cc1 [Compound 19, 7-Anilino-1H-pyrazolo[4,3-b]pyridine]
inhibition in vivo at 1 mg/ear [1]: 50%

c1cc2[nH]ncc2nc1N1CCCCC1 [Compound 1, 5-Piperidino-1H-pyrazolo(4,3-b)pyridine]
percent inhibition (analgesic activity) [3]: 10% | % Inhibition ([4]; 88 mg/kg orally): 34% | % Inhibition [5]: 32.9%

Cc1cc(Nc2ccc(Cl)cc2)c2[nH]ncc2n1 [Compound 14, 7-(4-Chloroanilino)-5-methyl-1H-pyrazolo[4,3-b]pyridine]
inhibition in vivo at 2 mg/ear [1]: 27%

CCOc1ccc(Nc2cc(C)nc3cn[nH]c23)cc1 [Compound 7, 7-(4-Ethoxyanilino)-5-methyl-1H-pyrazolo[4,3-b]pyridine]
inhibition in vivo at 2 mg/ear [1]: 25% | inhibition in vivo at 100 µg/ear [2]: 56%

CCCCNc1cc(C)nc2cn[nH]c12 [Compound 10, 7-n-Butylamino-5-methyl-1H-pyrazolo[4,3-b]pyridine]
inhibition in vivo at 0.5 mg/ear ([1]; 0.5 mg/ear): 76% | inhibition in vivo at 100 µg/ear [2]: 54%

COc1ccc(Nc2cc(C)nc3cn[nH]c23)cc1 [Compound 15, 7-(4-Methoxyanilino)-5-methyl-1H-pyrazolo[4,3-b]pyridine]
inhibition in vivo at 1 mg/ear [1]: 41%

Cc1cc(Nc2ccccc2)c2[nH]ncc2n1 [Compound 4, 7-Anilino-5-methyl-1H-pyrazolo(4,3-b)pyridine]
inhibition in vivo at 1 mg/ear [1]: 42% | % Inhibition ([4]; 75 mg/kg orally): 40.2% | % Inhibition [5]: 71.7% | inhibition in vivo at 200 µg/ear [2]: 81%

Cc1cc(Nc2ccccc2C)c2[nH]ncc2n1 [Compound 8, 7-(2-Methylanilino)-5-methyl-1H-pyrazolo[4,3-b]pyridine]
inhibition in vivo at 0.9 mg/ear ([1]; 0.9 mg/ear): 56% | inhibition in vivo at 100 µg/ear [2]: 31%

Cc1cc(Sc2ccccc2)c2[nH]ncc2n1 [Compound 9, 5-Methyl-7-phenylthio-1H-pyrazolo[4,3-b]pyridine]
inhibition in vivo at 1 mg/ear [1]: 40% | inhibition in vivo at 100 µg/ear [2]: 61%

Cc1cc(Nc2ccccc2)c2nn(C)cc2n1 [Compound 5, 7-Anilino-2,5-dimethyl-2H-pyrazolo(4,3-b)pyridine]
inhibition in vivo at 2 mg/ear [1]: 44% | inhibition in vivo at 200 µg/ear [2]: 63%

CC(=O)N(C(C)=O)c1cc(C)nc2c(C)n[nH]c12 [The compound wherein R is NAc2]
CNS antidepressant activity [6]: having CNS antidepressant activity

Cc1cc(Nc2ccc(Cl)c(Cl)c2)c2[nH]ncc2n1 [Compound 24, 7-(3,4-Dichloroanilino)-5-methyl-1H-pyrazolo[4,3-b]pyridine]
inhibition in vivo at 1 mg/ear [1]: 29%
